# According to ChEMBL document CHEMBL3351415, “Synthesis, antimicrobial and anti-biofilm activities of novel Schiff base analogues derived from methyl-12-aminooctadec-9-enoate” (Bioorg Med Chem Lett, 2014):
# How the values were obtained:
# [1] = system: Escherichia coli; experiment: Antimicrobial activity against Escherichia coli MTCC 739 incubated for 24 hrs by well diffusion method; assay type: functional; details: MTCC 739, 24 h
# [2] = system: Staphylococcus aureus; experiment: Anti-biofilm activity against Staphylococcus aureus MLS-16 MTCC 2940 assessed as inhibition of biofilm formation incubated for 24 hrs by crystal violet staining based modified biofilm inhibition assay; assay type: functional, organism-based; details: MLS-16 MTCC 2940, 24 h
# [3] = system: Staphylococcus aureus; experiment: Anti-biofilm activity against Staphylococcus aureus MTCC 96 assessed as inhibition of biofilm formation incubated for 24 hrs by crystal violet staining based modified biofilm inhibition assay; assay type: functional, organism-based; details: MTCC 96, 24 h
# [4] = system: Pseudomonas aeruginosa; experiment: Antimicrobial activity against Pseudomonas aeruginosa MTCC 2453 incubated for 24 hrs by well diffusion method; assay type: functional; details: MTCC 2453, 24 h
# [5] = Antimicrobial activity against Klebsiella […] incubated for 24 hrs by well diffusion method; assay type: functional, Raoultella planticola
# [6] = system: Bacillus subtilis; experiment: Antimicrobial activity against Bacillus subtilis MTCC 121 incubated for 24 hrs by well diffusion method; assay type: functional; details: MTCC 121, 24 h
# [7] = system: Bacillus subtilis; experiment: Bactericidal activity against Bacillus subtilis MTCC 121 incubated for 24 hrs; assay type: functional; details: MTCC 121, 24 h
# [8] = system: Staphylococcus aureus; experiment: Bactericidal activity against Staphylococcus aureus MTCC 96 incubated for 24 hrs; assay type: functional; details: MTCC 96, 24 h
# [9] = system: Staphylococcus aureus; experiment: Antimicrobial activity against Staphylococcus aureus MTCC 96 incubated for 24 hrs by well diffusion method; assay type: functional; details: MTCC 96, 24 h
# [10] = system: Bacillus subtilis; experiment: Anti-biofilm activity against Bacillus subtilis MTCC 121 assessed as inhibition of biofilm formation incubated for 24 hrs by crystal violet staining based modified biofilm inhibition assay; assay type: functional, organism-based; details: MTCC 121, 24 h
# [11] = system: Staphylococcus aureus; experiment: Bactericidal activity against Staphylococcus aureus MLS-16 MTCC 2940 incubated for 24 hrs; assay type: functional; details: MLS-16 MTCC 2940, 24 h
# [12] = system: Micrococcus luteus; experiment: Antimicrobial activity against Micrococcus luteus MTCC 2470 incubated for 24 hrs by well diffusion method; assay type: functional; details: MTCC 2470, 24 h
# [13] = system: Staphylococcus aureus; experiment: Antimicrobial activity against Staphylococcus aureus MLS-16 MTCC 2940 incubated for 24 hrs by well diffusion method; assay type: functional; details: MLS-16 MTCC 2940, 24 h
SMILES,MIC [1] [µM],IC50 [2] [µM],IC50 [3] [µM],MIC [4] [µM],MIC [5] [µM],MIC [6] [µM],MBC [7] [µM],MBC [8] [µM],MIC [9] [µM],IC50 [10] [µM],MBC [11] [µM],MIC [12] [µM],MIC [13] [µM]
CCCCCCC(C/C=C\CCCCCCCC(=O)OC)/N=C\C=C\c1ccc(N(C)C)cc1 (stereo not given),> 300,8.1,10.2,> 300,> 300,33.3,66.6,16.6,16.6,21.7,33.3,> 300,16.6
CCCCCCC(C/C=C\CCCCCCCC(=O)OC)/N=C\c1cccc([N+](=O)[O-])c1 (stereo not given),> 300,–,–,> 300,> 300,> 300,–,–,> 300,–,–,> 300,> 300
CCCCCCC(C/C=C\CCCCCCCC(=O)OC)/N=C\c1cc(OC)c(O)c(OC)c1 (stereo not given),> 300,6.5,7.3,> 300,> 300,16.4,16.4,16.4,16.4,8.6,32.8,> 300,16.4
CCCCCCC(C/C=C\CCCCCCCC(=O)OC)/N=C\c1ccc(C#N)cc1 (stereo not given),> 300,–,–,> 300,> 300,> 300,–,–,> 300,–,–,> 300,> 300
CCCCCCC(C/C=C\CCCCCCCC(=O)OC)/N=C\c1ccc(C)cc1 (stereo not given),> 300,–,–,> 300,> 300,> 300,–,–,> 300,–,–,> 300,> 300
O=C(O)c1cn(C2CC2)c2cc(N3CCNCC3)c(F)cc2c1=O [CIPROFLOXACIN],2.7,–,0.99,2.7,2.7,2.7,5.7,2.7,2.7,1.53,5.7,2.7,2.7
CCCCCCC(C/C=C\CCCCCCCC(=O)OC)/N=C\c1ccc(OC)cc1OC (stereo not given),> 300,–,–,> 300,> 300,33.9,–,–,67.9,–,–,> 300,33.9
CCCCCCC(C/C=C\CCCCCCCC(=O)OC)/N=C\c1ccc(F)cc1 (stereo not given),> 300,–,–,> 300,> 300,150,–,–,150,–,–,> 300,150
CCCCCCC(C/C=C\CCCCCCCC(=O)OC)/N=C\c1ccc(Cl)cc1Cl (stereo not given),> 300,–,–,> 300,> 300,> 300,–,–,> 300,–,–,> 300,> 300
